According to patent US10626103B2, “Inhibitor of lysine specific demethylase-1” (CELGENE QUANTICEL RESEARCH, INC., priority 2014, dated 2020):

How the values were obtained:
[1] = system: CD11b expression in THP-1 (AML) cells; assay: LSD1 CD11b cellular assay (flow cytometry); type: cell-based; settings: THP-1 cells, 4 days
Experimental: To analyze LSD1 inhibitor efficacy in cells, a CDL11b flow cytometry assay was performed. LSD1 inhibition induces CD11b expression in THP-1 (AML) cells which can be measured by flow cytometry. […] LSD 1 test compounds were serially diluted in DMSO. The dilutions were added to each well accordingly to a final concentration of 0.2% DMSO. The cells were incubated at 37 degrees Celsius in 5% CO2 for 4 days. 250 μL of each well was transferred to a well in a 96 well round bottom plate. The plate was centrifuged at 1200 rpm at 4 degrees Celsius in a Beckman Coulter Alegra 6KR centrifuge for 5 minutes. The media was removed leaving the cells at the bottom of the wells. The cells were washed in 100 μL cold HBSS (Hank's Balanced Salt Solution) plus 2% BSA (Bovine Serum Albumin) solution and centrifuged at 1200 rpm at 4 degrees Celsius for 5 minutes. The wash was removed. […] The cells were centrifuged and washed two times in 100 μl HBSS plus 2% BSA. After the final spin the cells were resuspended in 100 μL HBSS plus 2% BSA containing 1 ug/mL DAPI (4′,6-diamidino-2-phenylindole). The cells were then analyzed by flow cytometry in a BD FACSAria machine. Cells were analyzed for CD11b expression. The percent of CD11b expressing cells for each inhibitor concentration was used to determine an IC50 curve for each compound analyzed.

full-length human LSD1 = full-length human LSD1 (Homo sapiens (Human), UniProt O60341); assay: In vitro enzyme inhibition assay LSD-1 (TR-FRET); type: biochemical; settings: H3K4me1-biotin peptide
Experimental: This assay determines the ability of a test compound to inhibit LSD1 demethylase activity.
The enzymatic assay of LSD1 activity is based on Time Resolved-Fluorescence Resonance Energy Transfer (TR-FRET) detection.
Plates were read by EnVision Multilabel Reader in TR-FRET mode (excitation at 320 nm, emission at 615 nm and 665 nm) after 1 hour incubation at room temperature.
The ability of the compounds disclosed herein to inhibit LSD1 activity was quantified and the respective IC50 value was determined.

| IC50 [1] [nM] | IC50 (full-length human LSD1) [nM] | IC50 ([1]; Homo sapiens, 96 h) [nM] | Compound |
| --- | --- | --- | --- |
| < 100 |  |  | Cn1cc2cc(-c3c(-c4ccc(C#N)c(F)c4)cc(C(=O)NCC4CCNC4)n3C)ccc2n1 (stereo in doubt) [Example 33, N-[((3S)pyrrolidin-3-yl)methyl][4-(4-cyano-3-fluorophenyl)-1-methyl-5-(2-methyl(2H-indazol-5-yl))pyrrol-2-yl]carboxamide] |
|  | < 100 | < 100 | Cc1ccc(-c2c(-c3ccc(C#N)cc3)cc(C(=O)N3CCC[C@@H](N)C3)n2C)cc1 [Example 1, 4-[5-(3-(R)-amino-piperidine-1-carbonyl)-1-methyl-2-p-tolyl-1H-pyrrol-3-yl]-benzonitrile] |
|  | < 100 | < 100 | COc1ccc(-c2c(-c3ccc(C#N)c(F)c3)cc(C(=O)N3CCC[C@@H](N)C3)n2C)cc1 [Example 2, 4-[5-(3-(R)-amino-piperidine-1-carbonyl)-2-(4-methoxy-phenyl)-1-methyl-1H-pyrrol-3-yl]-2-fluoro-benzonitrile] |
|  | < 100 | < 100 | Cc1ccc(-c2c(-c3ccc(C#N)cc3)cc(C(=O)N3CCC[C@@H](N)C3)n2CCO)cc1 [Example 3, 4-[5-(3-(R)-amino-piperidine-1-carbonyl)-1-(2-hydroxy-ethyl)-2-p-tolyl-1H-pyrrol-3-yl]-benzonitrile] |
|  | < 100 | < 100 | Cc1ccc(-c2c(-c3ccc(C#N)c(F)c3)cc(C(=O)N3CCC[C@@H](N)C3)n2CCO)cc1 [Example 4, 4-[5-(3-(R)-amino-piperidine-1-carbonyl)-1-(2-hydroxy-ethyl)-2-p-tolyl-1H-pyrrol-3-yl]-2-fluoro-benzonitrile] |
|  | < 100 | < 100 | Cc1ccc(-c2c(-c3ccc(C#N)cc3)cc(C(=O)N3CCC[C@@H](N)C3)n2C)cn1 [Example 5, 4-[5-(3-(R)-amino-piperidine-1-carbonyl)-1-methyl-2-(6-methyl-pyridin-3-yl)-1H-pyrrol-3-yl]-benzonitrile] |
|  | < 100 | < 100 | Cn1c(C(=O)N2CCC[C@@H](N)C2)cc(-c2ccc(C#N)cc2)c1-c1ccncc1 [Example 6, 4-[5-(3-(R)-amino-piperidine-1-carbonyl)-1-methyl-2-pyridin-4-yl-1H-pyrrol-3-yl]-benzonitrile] |
|  | < 100 | < 100 | COc1ccc(-c2c(-c3ccc(C#N)cc3)cc(C(=O)N3CCC[C@@H](N)C3)n2CCO)cc1 [Example 7, 4-[5-(3-(R)-amino-piperidine-1-carbonyl)-1-(2-hydroxy-ethyl)-2-(4-methoxy-phenyl)-1H-pyrrol-3-yl]-benzonitrile] |
|  | < 100 | < 100 | COc1ccc(-c2c(-c3ccc(C#N)c(F)c3)cc(C(=O)N3CCC[C@@H](N)C3)n2CCO)cc1 [Example 8, 4-[5-(3-(R)-amino-piperidine-1-carbonyl)-1-(2-hydroxy-ethyl)-2-(4-methoxy-phenyl)-1H-pyrrol-3-yl]-2-fluoro-benzonitrile] |
|  | < 100 | < 100 | Cc1ccc(-c2c(-c3ccc(C#N)c(F)c3)cc(C(=O)N3CCC[C@@H](N)C3)n2CCCO)cc1 [Example 9] |
|  | < 100 | < 100 | Cn1c(C(=O)N2CCC[C@@H](N)C2)cc(-c2ccc(C#N)c(F)c2)c1-c1ccc2c(c1)ncn2C [Example 10, 4-[5-(3-(R)-amino-piperidine-1-carbonyl)-1-methyl-2-(1-methyl-1H-benzoimidazol-5-yl)-1H-pyrrol-3-yl]-2-fluoro-benzonitrile] |
|  | < 100 | 100 to 1000 | COc1ccc(-n2c(-c3ccc(C#N)c(F)c3)nc(C(=O)N3CC[C@@H](N)C3)c2C)cc1 [Example 13, 4-[4-[(3R)-3-aminopyrrolidine-1-carbonyl]-1-(4-methoxyphenyl)-5-methylimidazol-2-yl]-2-fluorobenzonitrile] |
|  | < 100 | < 100 | COc1ccc(-n2cc(C(=O)N3CCC[C@@H](N)C3)nc2-c2ccc(C#N)c(F)c2)cc1F [Example 19, 4-[4-[(3R)-3-aminopiperidine-1-carbonyl]-1-(3-fluoro-4-methoxyphenyl)imidazol-2-yl]-2-fluorobenzonitrile] |
|  | < 100 |  | Cn1cc2cc(-n3cc(C(=O)N4CCC[C@@H](N)C4)nc3-c3ccc(C#N)c(F)c3)ccc2n1 [Example 25, 4-[4-[(3R)-3-aminopiperidine-1-carbonyl]-1-(2-methylindazol-5-yl)imidazol-2-yl]-2-fluorobenzonitrile] |
|  | < 100 |  | Cn1cc2cc(-n3cc(C(=O)N4CC[C@H](N)C4)nc3-c3ccc(C#N)c(F)c3)ccc2n1 [Example 26, 4-[4-[(3S)-3-aminopyrrolidine-1-carbonyl]-1-(2-methylindazol-5-yl)imidazol-2-yl]-2-fluorobenzonitrile] |
|  | < 100 |  | Cn1ncc2cc(-n3cc(C(=O)N4CCC[C@@H](N)C4)nc3-c3ccc(C#N)c(F)c3)ccc21 [Example 27, 4-[4-[(3R)-3-aminopiperidine-1-carbonyl]-1-(1-methylindazol-5-yl)imidazol-2-yl]-2-fluorobenzonitrile] |
|  | < 100 |  | Cn1ncc2cc(-n3cc(C(=O)N4CC[C@H](N)C4)nc3-c3ccc(C#N)c(F)c3)ccc21 [Example 28, 4-[4-[(3S)-3-aminopyrrolidine-1-carbonyl]-1-(1-methylindazol-5-yl)imidazol-2-yl]-2-fluorobenzonitrile] |
|  | < 100 |  | COc1ccc(-c2c(-c3ccc(C#N)c(F)c3)cc(C(=O)N3CCC[C@@H](N)C3)n2CC(N)=O)cc1 [Example 37, (R)-2-(5-(3-aminopiperidine-1-carbonyl)-3-(4-cyano-3-fluorophenyl)-2-(4-methoxyphenyl)-1H-pyrrol-1-yl)acetamide] |
|  |  | 100 to 1000 | COc1ccc(-c2c(-c3ccc(C#N)c(F)c3)cc(C(=O)N3CCC[C@@H](N)C3)n2CCCC(=O)O)cc1 [Example 41, 4-{5-[((3R)-3-aminopiperidyl)carbonyl]-3-(4-cyano-3-fluorophenyl)-2-(4-methoxyphenyl)pyrrolyl}butanoic acid] |
|  | < 100 |  | CN1CC[C@@H](NC(=O)c2cn(-c3ccc4nn(C)c(Cl)c4c3)c(-c3ccc(C#N)c(F)c3)n2)C1 [Example 106, 1-(3-Chloro-2-methylindazol-5-yl)-2-(4-cyano-3-fluorophenyl)-N-[(3R)-1-methylpyrrolidin-3-yl]imidazole-4-carboxamide] |
|  | < 100 |  | CN1CC[C@H](NC(=O)c2cn(-c3ccc4nn(C)c(Cl)c4c3)c(-c3ccc(C#N)c(F)c3)n2)C1 [Example 107, 1-(3-Chloro-2-methylindazol-5-yl)-2-(4-cyano-3-fluorophenyl)-N-[(3S)-1-methylpyrrolidin-3-yl]imidazole-4-carboxamide] |
|  | < 100 |  | Cc1c(C(=O)N[C@@H]2CCN(C)C2)nc(-c2ccc(C#N)c(F)c2)n1-c1ccc2nn(C)cc2c1 [Example 108, 2-(4-Cyano-3-fluorophenyl)-5-methyl-1-(2-methylindazol-5-yl)-N-[(3R)-1-methylpyrrolidin-3-yl]imidazole-4-carboxamide] |
|  | < 100 |  | Cc1c(C(=O)N[C@H]2CCN(C)C2)nc(-c2ccc(C#N)c(F)c2)n1-c1ccc2nn(C)cc2c1 [Example 109, 2-(4-Cyano-3-fluorophenyl)-5-methyl-1-(2-methylindazol-5-yl)-N-[(3S)-1-methylpyrrolidin-3-yl]imidazole-4-carboxamide] |
